Values after ≈ are worked out from the molar mass of the structure shown. Like-named read-outs stand apart in the source and are kept apart here.
What was measured:
USA300 isolate of MRSA = test: MIC, CLSI broth microdilution, USA300 MRSA; type: cell-based; conditions: Staphylococcus aureus; CLSI broth microdilution; ciprofloxacin-resistant MRSA; read-out: MIC USA300
CYP2C9 = target: T1, CYP2C9 (Homo sapiens, UniProt P11712); test: CYP450 inhibition in human liver microsomes, CYP2C9; type: in vitro ADME; conditions: 10 μM
T1 construct: incubated with human liver microsomes (mixed gender, pool of 50 donors, 0.1 mg/mL); from tissue; host or cells: human liver microsomes, pool of 50 donors
Description: (§1) CYP450 inhibition assays was conducted using individual enzyme substrates and inhibitors instead of a cocktail to avoid interferences. CYP450 isoforms tested included the following: CYP1A2, CYP2B6, CYP2C8, CYP2C9, CYP2C19, CYP2D6, and CYP3A4. Each test compound was screened at a final concentration of 10 μM. Each test compound was incubated with human liver microsomes (mixed gender, pool of 50 donors, 0.1 mg/mL), CYP450-selective probe substrates, and co-factors (NADPH, MgCl2) in phosphate buffer (pH 7.4) for 10-30 min in a 96-well plate at 37° C. The reactions were stopped by transferring the reaction mixture to acetonitrile/methanol. Samples were mixed and centrifuged, and the supernatants analyzed by LC-MS/MS to quantify percent inhibition relative to vehicle control.

hERG = hERG (Homo sapiens, UniProt Q12809); test: hERG IC50, IonWorks Barracuda (Charles River); conditions: 6 versus 24
Excerpt: The design of these isomannide-detived NBTIs focused on enhanced polarity and modulation of basicity through the two electronegative oxygen atoms in the linker.

[1] = target: T2, Kir2.1 Human Potassium Ion Channel (Homo sapiens, UniProt P63252); test: Kir2.1 QPatch CiPA assay; type: cell-based; conditions: mean, duplicate
T2 construct: expressed in transfected cells
T2 sequence (P63252 1-427): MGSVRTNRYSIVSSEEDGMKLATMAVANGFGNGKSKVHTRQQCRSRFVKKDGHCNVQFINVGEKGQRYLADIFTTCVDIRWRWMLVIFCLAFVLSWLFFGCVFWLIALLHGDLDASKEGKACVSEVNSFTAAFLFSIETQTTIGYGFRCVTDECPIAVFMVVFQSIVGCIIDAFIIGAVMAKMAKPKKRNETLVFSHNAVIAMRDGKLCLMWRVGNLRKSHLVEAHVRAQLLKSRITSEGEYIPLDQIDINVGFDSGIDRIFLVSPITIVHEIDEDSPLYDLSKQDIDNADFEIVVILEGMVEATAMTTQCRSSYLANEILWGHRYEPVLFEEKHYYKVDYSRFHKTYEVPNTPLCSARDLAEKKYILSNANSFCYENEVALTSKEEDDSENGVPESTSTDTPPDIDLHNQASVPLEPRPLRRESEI
Excerpt: (§2) Early drug discovery programs commonly assess hERG inhibition as the only indicator of potential cardiovascular safety concerns. Researchers have recently recommended a more rigorous evaluation of multiple cardiac ion channels to provide a more comprehensive cardiovascular risk assessment (Fermini, B., et al., A New Perspective in the Field of Cardiac Safety Testing through the Comprehensive In Vitro Proarrhythmia Assay Paradigm. J. Biomolec. Screening 2016, 21, 1-11). Given the promising initial results for 6, further evaluation was undertaken (in duplicate) in a Comprehensive in vitro Proarrhythmia Assay (CiPA) eight assay panel run on the QPatch HT (Sophion, Denmark) automated patch clamp system at three concentrations (3, 30, and 100 μM). All data were filtered for seal quality, seal drop, and current amplitude. A stock solution of the test compound at 30 mM concentration was prepared in DMSO.
(§3) The parameters measured were the maximum inward current evoked on stepping to −120 mV from the test pulse. The peak current amplitude was calculated before and after compound addition and the amount of block was assessed by dividing the Test compound current amplitude by the Control current amplitude. Control is the mean hKir2.1 current amplitude collected 15 seconds at the end of the control; Test Compound is the mean hKir2.1 current amplitude peak and end collected in the presence of test compound at each concentration. The positive control was barium chloride.

[2] = test system: Streptococcus pyogenes LSI-1235; test: MIC panel (Laboratory Specialists, Inc.), S. pyogenes; type: cell-based; conditions: LSI1235, Cmpd. 6, CLSI broth microdilution
CYP3A4 = target: T3, CYP3A4 (Homo sapiens, UniProt P08684); test: CYP450 inhibition in human liver microsomes, CYP3A4; type: in vitro ADME; conditions: both sexes
T3 construct: incubated with human liver microsomes (mixed gender, pool of 50 donors, 0.1 mg/mL); from tissue; host or cells: human liver microsomes, pool of 50 donors
Description: as §1, with “Each test compound was screened at a final concentration of 10 μM.” left out

[3] = target: T4, Cav1.2 (L-type) Human Calcium Ion Channel (Homo sapiens, UniProt Q13936); test: Cav1.2 (L-type) QPatch CiPA assay; type: cell-based; conditions: mean, duplicate
T4 construct: expressed in transfected cells
Excerpt: as §2
as §3, with “10” for “−120”, “hCav1.2” for “hKir2.1”, “amplitude” for “amplitude peak and end”, “nifedipine.” for “barium chloride.”

[4] = read-out: % Inhibition Kir2.1 (end current)
[5] = read-out: % Inhibition Kir2.1 (peak current)
[6] = liver microsomes, pH 7.4, probe midazolam, Exp. 1, read-out: CYP3A4 (midazolam hydroxylase) % of control (Exp. 1)
[7] = liver microsomes, pH 7.4, probe midazolam, Exp. 2, read-out: CYP3A4 (midazolam hydroxylase) % of control (Exp. 2)
[8] = liver microsomes, pH 7.4, probe midazolam, Exp. 3, read-out: CYP3A4 (midazolam hydroxylase) % of control (Exp. 3)

T4 sequence (Q13936 whole entry): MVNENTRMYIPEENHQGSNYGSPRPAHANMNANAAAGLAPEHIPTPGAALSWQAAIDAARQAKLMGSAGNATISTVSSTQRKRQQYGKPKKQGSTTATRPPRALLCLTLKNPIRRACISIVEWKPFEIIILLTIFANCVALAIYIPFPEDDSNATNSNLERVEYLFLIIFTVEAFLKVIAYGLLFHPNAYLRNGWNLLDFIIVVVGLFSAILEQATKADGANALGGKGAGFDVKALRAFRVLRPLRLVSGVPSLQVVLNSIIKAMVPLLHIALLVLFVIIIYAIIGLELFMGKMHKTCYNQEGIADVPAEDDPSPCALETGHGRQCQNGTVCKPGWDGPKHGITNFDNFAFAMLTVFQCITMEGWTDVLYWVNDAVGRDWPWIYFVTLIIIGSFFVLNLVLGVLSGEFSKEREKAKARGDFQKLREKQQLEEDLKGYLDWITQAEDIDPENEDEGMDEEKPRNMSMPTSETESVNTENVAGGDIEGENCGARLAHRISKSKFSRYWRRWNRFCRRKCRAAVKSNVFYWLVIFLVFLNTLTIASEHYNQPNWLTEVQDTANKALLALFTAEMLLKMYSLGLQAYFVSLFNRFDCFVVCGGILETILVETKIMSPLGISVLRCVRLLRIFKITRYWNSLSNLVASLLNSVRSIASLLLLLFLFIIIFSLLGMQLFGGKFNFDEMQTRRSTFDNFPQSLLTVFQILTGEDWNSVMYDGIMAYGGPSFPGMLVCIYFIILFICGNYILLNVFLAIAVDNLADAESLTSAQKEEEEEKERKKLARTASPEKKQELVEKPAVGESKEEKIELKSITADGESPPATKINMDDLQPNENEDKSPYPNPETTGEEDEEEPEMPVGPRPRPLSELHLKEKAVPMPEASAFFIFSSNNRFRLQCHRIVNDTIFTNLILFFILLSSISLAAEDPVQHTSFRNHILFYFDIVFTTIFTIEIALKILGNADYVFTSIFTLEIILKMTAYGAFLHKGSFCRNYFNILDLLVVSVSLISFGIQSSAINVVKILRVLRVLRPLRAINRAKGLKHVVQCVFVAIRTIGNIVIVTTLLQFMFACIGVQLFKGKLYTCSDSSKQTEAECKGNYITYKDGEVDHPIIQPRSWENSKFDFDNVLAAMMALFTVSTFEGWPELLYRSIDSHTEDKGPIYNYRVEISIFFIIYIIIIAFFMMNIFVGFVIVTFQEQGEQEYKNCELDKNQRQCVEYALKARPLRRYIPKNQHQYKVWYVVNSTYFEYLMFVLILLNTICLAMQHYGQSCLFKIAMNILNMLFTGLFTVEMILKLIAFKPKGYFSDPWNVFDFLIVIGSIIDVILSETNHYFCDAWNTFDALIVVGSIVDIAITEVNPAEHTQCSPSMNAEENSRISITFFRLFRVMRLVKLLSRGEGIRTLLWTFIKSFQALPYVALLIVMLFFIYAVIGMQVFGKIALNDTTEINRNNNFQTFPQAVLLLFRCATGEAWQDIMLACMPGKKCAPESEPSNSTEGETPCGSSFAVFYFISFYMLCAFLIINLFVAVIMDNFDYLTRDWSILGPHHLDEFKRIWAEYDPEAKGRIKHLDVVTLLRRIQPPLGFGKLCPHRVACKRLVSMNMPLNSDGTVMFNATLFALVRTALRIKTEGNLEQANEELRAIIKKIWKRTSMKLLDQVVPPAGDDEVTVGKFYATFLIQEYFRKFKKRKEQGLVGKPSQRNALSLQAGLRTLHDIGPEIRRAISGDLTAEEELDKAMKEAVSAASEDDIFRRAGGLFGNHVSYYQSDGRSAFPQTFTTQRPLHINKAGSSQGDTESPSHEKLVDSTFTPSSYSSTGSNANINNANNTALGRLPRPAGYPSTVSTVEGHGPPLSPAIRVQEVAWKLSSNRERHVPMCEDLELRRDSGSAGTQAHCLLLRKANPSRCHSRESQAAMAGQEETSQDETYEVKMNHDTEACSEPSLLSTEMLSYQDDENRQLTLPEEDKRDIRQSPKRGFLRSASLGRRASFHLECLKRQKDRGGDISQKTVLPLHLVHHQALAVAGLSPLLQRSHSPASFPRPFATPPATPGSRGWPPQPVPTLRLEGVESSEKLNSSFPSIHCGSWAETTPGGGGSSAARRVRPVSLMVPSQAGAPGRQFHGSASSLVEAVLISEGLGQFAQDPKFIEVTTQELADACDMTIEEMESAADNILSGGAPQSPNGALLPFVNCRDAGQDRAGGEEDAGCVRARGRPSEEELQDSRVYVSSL
T4 sequence (Q08289 whole entry partner): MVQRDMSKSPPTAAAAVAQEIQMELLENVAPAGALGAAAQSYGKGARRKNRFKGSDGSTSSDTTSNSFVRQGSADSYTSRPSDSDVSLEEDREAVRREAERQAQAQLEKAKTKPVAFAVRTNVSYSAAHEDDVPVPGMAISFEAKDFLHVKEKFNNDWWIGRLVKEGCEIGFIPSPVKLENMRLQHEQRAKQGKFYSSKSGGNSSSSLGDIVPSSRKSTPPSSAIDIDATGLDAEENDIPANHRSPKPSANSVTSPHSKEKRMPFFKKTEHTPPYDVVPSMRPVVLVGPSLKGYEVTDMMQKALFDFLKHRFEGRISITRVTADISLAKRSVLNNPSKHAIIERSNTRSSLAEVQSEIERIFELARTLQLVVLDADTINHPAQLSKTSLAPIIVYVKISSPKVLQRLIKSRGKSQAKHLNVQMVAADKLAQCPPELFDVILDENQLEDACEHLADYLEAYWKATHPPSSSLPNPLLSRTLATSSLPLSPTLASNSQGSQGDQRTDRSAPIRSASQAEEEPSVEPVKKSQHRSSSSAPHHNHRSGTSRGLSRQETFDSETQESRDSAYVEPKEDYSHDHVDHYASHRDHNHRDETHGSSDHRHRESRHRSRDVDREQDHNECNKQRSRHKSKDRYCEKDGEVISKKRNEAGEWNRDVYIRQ
T4 sequence (P54289 25-946 partner limits assumed): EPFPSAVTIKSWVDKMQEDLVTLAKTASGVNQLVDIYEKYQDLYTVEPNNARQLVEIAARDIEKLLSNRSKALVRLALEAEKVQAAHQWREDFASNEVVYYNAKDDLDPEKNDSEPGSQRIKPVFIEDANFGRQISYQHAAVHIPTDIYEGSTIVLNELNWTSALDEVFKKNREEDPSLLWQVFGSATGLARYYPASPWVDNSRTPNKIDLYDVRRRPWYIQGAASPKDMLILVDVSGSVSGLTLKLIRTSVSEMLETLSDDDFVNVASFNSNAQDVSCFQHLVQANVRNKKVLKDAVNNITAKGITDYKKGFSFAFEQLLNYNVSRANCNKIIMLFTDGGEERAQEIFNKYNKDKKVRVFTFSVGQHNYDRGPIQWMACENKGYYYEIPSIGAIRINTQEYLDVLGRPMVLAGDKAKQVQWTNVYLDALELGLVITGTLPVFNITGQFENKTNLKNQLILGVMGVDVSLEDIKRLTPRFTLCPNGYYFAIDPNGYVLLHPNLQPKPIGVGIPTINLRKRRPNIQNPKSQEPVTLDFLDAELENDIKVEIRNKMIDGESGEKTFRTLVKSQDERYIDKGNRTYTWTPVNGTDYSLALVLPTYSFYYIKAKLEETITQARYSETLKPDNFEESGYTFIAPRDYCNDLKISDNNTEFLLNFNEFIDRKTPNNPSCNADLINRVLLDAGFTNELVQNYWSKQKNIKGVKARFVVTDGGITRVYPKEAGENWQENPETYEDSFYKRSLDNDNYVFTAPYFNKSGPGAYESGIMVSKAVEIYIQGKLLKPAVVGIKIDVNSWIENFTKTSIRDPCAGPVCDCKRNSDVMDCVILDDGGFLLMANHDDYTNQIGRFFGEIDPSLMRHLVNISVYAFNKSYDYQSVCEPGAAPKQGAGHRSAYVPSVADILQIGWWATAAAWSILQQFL
T4 sequence (P54289 947-1103 partner limits assumed): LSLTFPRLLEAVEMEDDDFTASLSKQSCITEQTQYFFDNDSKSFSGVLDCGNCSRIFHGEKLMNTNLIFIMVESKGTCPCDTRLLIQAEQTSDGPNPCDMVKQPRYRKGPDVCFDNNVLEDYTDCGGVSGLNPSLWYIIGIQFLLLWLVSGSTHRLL
T3 sequence (P08684 whole entry): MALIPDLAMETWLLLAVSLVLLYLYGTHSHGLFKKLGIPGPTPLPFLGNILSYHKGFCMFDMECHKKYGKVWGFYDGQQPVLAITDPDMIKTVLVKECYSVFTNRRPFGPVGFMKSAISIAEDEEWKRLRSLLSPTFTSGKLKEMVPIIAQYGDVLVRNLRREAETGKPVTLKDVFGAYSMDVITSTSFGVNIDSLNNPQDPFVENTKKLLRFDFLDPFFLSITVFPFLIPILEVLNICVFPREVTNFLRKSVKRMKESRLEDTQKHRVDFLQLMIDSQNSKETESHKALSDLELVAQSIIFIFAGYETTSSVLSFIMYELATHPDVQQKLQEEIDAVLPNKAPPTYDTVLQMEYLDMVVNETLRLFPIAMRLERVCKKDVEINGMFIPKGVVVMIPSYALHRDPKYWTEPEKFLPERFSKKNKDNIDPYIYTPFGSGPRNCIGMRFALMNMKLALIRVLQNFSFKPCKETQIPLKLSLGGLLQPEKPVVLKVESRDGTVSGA
T1 sequence (P11712 whole entry): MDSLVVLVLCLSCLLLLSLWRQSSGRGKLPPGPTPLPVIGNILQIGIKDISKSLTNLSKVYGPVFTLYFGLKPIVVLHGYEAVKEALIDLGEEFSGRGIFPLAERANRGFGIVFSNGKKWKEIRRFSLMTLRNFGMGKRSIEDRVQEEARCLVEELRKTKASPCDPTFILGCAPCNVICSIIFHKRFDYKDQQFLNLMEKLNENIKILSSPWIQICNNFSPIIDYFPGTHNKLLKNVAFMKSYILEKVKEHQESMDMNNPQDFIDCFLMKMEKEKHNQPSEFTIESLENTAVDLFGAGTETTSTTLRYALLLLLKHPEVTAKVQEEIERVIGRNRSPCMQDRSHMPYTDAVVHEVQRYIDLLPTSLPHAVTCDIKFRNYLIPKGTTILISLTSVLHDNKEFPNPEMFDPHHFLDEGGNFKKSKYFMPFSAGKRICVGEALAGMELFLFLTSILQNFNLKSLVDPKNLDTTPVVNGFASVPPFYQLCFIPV

Question: `COc1ccc2ncc(F)c(CC[C@@]3(O)CO[C@@H]4[C@@H](NCc5cc6c(cn5)OCCO6)CO[C@@H]43)c2n1` [Compound 6, (3R, 3aS,6S,6aR)-6-(((2,3-dihydro-[1,4]dioxino[2,36-c]pyridin-7-yl)methyl)amnino)-3-(2-(3-fluoro-6-methoxy-1,5-naphthyridin-4-yl)ethyl)hexahydrofuro[3,2-b]furan-3-ol] was tested. Which MIC (USA300 isolate of MRSA) did it give?
Answer: The MIC was 2 µg/mL (≈ 4.01 µM).

Question: What about the CYP2C9 inhibition (CYP2C9) of the same compound?
Answer: The CYP2C9 inhibition was “Less than 50%”.

Question: What about the “hERG IC50 higher than benzodioxine 24” value (hERG) of the same compound?
Answer: Its value is “ca. 3 fold”.

Question: What about the inhibition at 3 µM [1, 4] of the same compound?
Answer: Its inhibition at 3 µM is 8.3%.

Question: And the inhibition at 3 µM [1, 5]?
Answer: Its inhibition at 3 µM is 6.9%.

Question: What about the inhibition at 30 µM [1, 4] of the same compound?
Answer: Its inhibition at 30 µM is 19.6%.

Question: What about the inhibition at 30 µM [1, 5] of the same compound?
Answer: The inhibition at 30 µM was 18%.

Question: And the inhibition at 100 µM [1, 4]?
Answer: The inhibition at 100 µM was 31.9%.

Question: And the inhibition at 100 µM [1, 5]?
Answer: Its inhibition at 100 µM is 29.7%.

Question: And the MIC [2]?
Answer: The MIC was no more than 0.12 µg/mL.

Question: What about the activity at 3 µM (CYP3A4; human liver microsomes, pH 7.4, probe midazolam (midazolam hydroxylase activity), Exp. 1, read-out: CYP3A4 (midazolam hydroxylase) % of control (Exp. 1)) of the same compound?
Answer: The activity at 3 µM was 74.3%.

Question: And the activity at 3 µM (CYP3A4; human liver microsomes, pH 7.4, probe midazolam (midazolam hydroxylase activity), Exp. 2, read-out: CYP3A4 (midazolam hydroxylase) % of control (Exp. 2))?
Answer: The activity at 3 µM was 77.2%.

Question: What about the activity at 3 µM (CYP3A4; human liver microsomes, pH 7.4, probe midazolam (midazolam hydroxylase activity), Exp. 3, read-out: CYP3A4 (midazolam hydroxylase) % of control (Exp. 3)) of the same compound?
Answer: The activity at 3 µM was 60.4%.

Question: And the activity at 10 µM (CYP3A4; human liver microsomes, pH 7.4, probe midazolam (midazolam hydroxylase activity), 10 μM, Exp. 3, read-out: CYP3A4 (midazolam hydroxylase) % of control (Exp. 3))?
Answer: The activity at 10 µM was 74.5%.

Question: And the activity at 0.1 µM (CYP3A4; [6])?
Answer: Its activity at 0.1 µM is 116%.

Question: And the activity at 0.1 µM (CYP3A4; [7])?
Answer: The activity at 0.1 µM was 108%.

Question: What about the activity at 0.1 µM (CYP3A4; [8]) of the same compound?
Answer: The activity at 0.1 µM was 97%.

Question: What about the activity at 0.3 µM (CYP3A4; [6]) of the same compound?
Answer: Its activity at 0.3 µM is 89.9%.

Question: And the activity at 0.3 µM (CYP3A4; [7])?
Answer: The activity at 0.3 µM was 113%.

Question: And the activity at 0.3 µM (CYP3A4; [8])?
Answer: The activity at 0.3 µM was 99.2%.

Question: What about the activity at 1 µM (CYP3A4; [6]) of the same compound?
Answer: The activity at 1 µM was 60.4%.

Question: What about the activity at 1 µM (CYP3A4; [7]) of the same compound?
Answer: The activity at 1 µM was 89.8%.

Question: And the activity at 1 µM (CYP3A4; [8])?
Answer: The activity at 1 µM was 89.9%.

Question: What about the activity at 10 µM (CYP3A4; liver microsomes, pH 7.4, probe midazolam, 10 μM, Exp. 1, read-out: CYP3A4 (midazolam hydroxylase) % of control (Exp. 1)) of the same compound?
Answer: The activity at 10 µM was 49.5%.

Question: And the activity at 10 µM (CYP3A4; liver microsomes, pH 7.4, probe midazolam, 10 μM, Exp. 2, read-out: CYP3A4 (midazolam hydroxylase) % of control (Exp. 2))?
Answer: Its activity at 10 µM is 82.3%.

Question: And the inhibition at 10 µM (CYP3A4; liver microsomes, pH 7.4, probe midazolam, 10 μM, screening assay)?
Answer: Its inhibition at 10 µM is 56%.

Question: What about the IC50 (CYP3A4; liver microsomes, pH 7.4, probe midazolam, concentration-response assay in triplicate) of the same compound?
Answer: Its IC50 is greater than 10 µM.

Question: And the “% Inhibition Cav1.2 (peak current)” value ([3]; 3 μM)?
Answer: The value was 4.7%.

Question: And the “% Inhibition Cav1.2 (peak current)” value ([3]; 30 μM)?
Answer: The value was 23.3%.

Question: What about the “% Inhibition Cav1.2 (peak current)” value ([3]; 100 μM) of the same compound?
Answer: The value was 24.9%.
